Test results published in patent US9610363B2, “Methods for inhibiting starvation of a cell” (PRESIDENT AND FELLOWS OF HARVARD COLLEGE, priority 2009, dated 2017).
“Also recorded” adds a separate entry of the source.

Tests used:
[1] = system: cones; experiment: Quantification of cone survival in PDE-β−/− mice (cone-lacZ staining of retinal flat mounts); format: in vivo; settings: for cone survival after 4 weeks of treatment: PW7, insulin daily i.p. from P21, streptozotocin single i.p. injection at P21, vs uninjected control; for cone survival after 7 weeks of treatment: PW10, treatment from PW3, vs untreated
Experimental: (§1) Rapamycin, Streptozotocin and Insulin treatments were performed as follows. Rapamycin was diluted to 10 mg/ml in ethanol. The stock was diluted to 0.015 mg/ml in drinking water over a period of 2 weeks. A single intraperitoneal injection of 150 μl (12 mg/ml in 0.1M citric acid, ph4.5) of Streptozotocin was injected at postnatal day (P) 21. Insulin was injected intraperitoneally daily starting at P21. The concentration was increased weekly such that the first week, 10 U/kg body weight, the second 15 U/kg, the third 20 U/kg and fourth 30 U/kg body weight, were injected. In the treatment that lasted 7 weeks 30 U/kg body weight were injected for the remaining 3 weeks. Blood glucose levels were measured by collecting a drop of blood from the tail directly onto a test strip from TrueTrack smart system (CVS pharmacy). Eye bleeds were avoided due to the fact that cell survival in the retina was being assayed.
Quantification of cone survival was performed as follows. The colors of the bright light image were inverted and processed with Imaris software (Bitplane Inc) to calculate the percentage of blue surface area versus the total retinal surface area (see also FIG. 17). A minimum of 8 retinae per treatment, and for the control, were analyzed. P-values were calculated by the student's t-test.

[2] = system: p*-mTOR; experiment: Retinal explant culture, p*-mTOR staining; format: cell-based, mice; settings: wild type retinal explants, 4 hours culture, media with or without glucose
Experimental: Retinal explant cultures: The retina was dissected free from other ocular tissues in DMEM, and then incubated in conditions according to the chart in FIG. 10a. Regular DMEM was at 4.5 g/L glucose, low glucose was at 1 g/L, leucine was added at 200 μM and FCS at 10%. Incubation was performed for 4 h and the retinae were fixed and processed for antibody staining as described below.
(§2) Whole mount and section antibody staining were performed as previously (Punzo, C. & Cepko, C. L. (2008) Dev Dyn 237, 1034-42) described with the following modifications. Antibody staining for LAMP-2: Triton was replaced with 0.01% Saponin. Antibody staining for p*-mTOR and p*-S6: PBS was replaced by TBS in every step of the procedure. […] Time points analyzed for the rod and cone death kinetics (P: postnatal day; PW: postnatal week): PDE-β−/−: P10-P20 daily, PW3-10 weekly, PW 12, PW15, PW18, PW45; PDE-γ-KO: P10-P20 daily, PW3-PW10 weekly, PW15, PW25, PW45; Rho-KO: PW4-PW8 weekly, PW10, PW11, PW17, PW20, PW25, PW27, PW31, PW34, PW37, PW45, PW55, PW80; P23H: PW5, PW10, PW16, PW25, PW30, PW35, PW40, PW65, PW70, PW75, PW80, PW85.

[3] = Behavioral assays (open field and step tests) in rd1 mutant mice; format: in vivo, mouse; settings: infected rd1 animals
Excerpt: FIG. 23 is a graph depicting the open field and step tests performed on the rd1 mutant mice in which the AAV vector was introduced.
This observation also confirms that outer segment shortening was due to insufficient glucose.

[4] = system: HEK 293 cells; experiment: Expression of Fbp-1, Pck-1 and Pcx from the AAV vector (PCR, Western blot in HEK 293 cells); format: cell-based
Experimental: FIGS. 22A and B depict the mRNA expression and protein expression of gluconeogenesis genes. […] Gapdh is used as a loading control and water is used as a negative control.
Two ways were used to supply cells with more glucose. One was to increase intracellular glucose levels by providing cones with the means to synthesize their own glucose. Glucose synthesis, called gluconeogenesis, is carried out primarily in the liver, and to a limited extent in kidney and muscle. One might consider that the enzymes required for glucose synthesis could be those that break down glucose, during the process of glycolysis. However, some of the steps in glycolysis are energy producing and thus to reverse them requires a different process. Three enzymes must be supplied to allow the glucose to be synthesized, utilizing pyruvate or lactate as a starting point, and utilizing ATP and GTP to go uphill energetically in the synthesis. The first energy requiring step is catalyzed by Pcx (Pcx: Pyruvate Carboxylase) and utilizes ATP. A subsequent energy requiring step is catalyzed by Pck1: Phosphoenolpyruvate carboxykinase) and requires GTP. […] The endogenous expression of Fbp1, PCk1, and Pcx and the expression Fbp1, PCk1, and Pcx in the AAV vector (“construct”) was analyzed by PCR analysis (FIG. 22A) and Western blot analysis (FIG. 22B).

[5] = system: cones; experiment: AAV2/5 gluconeogenesis vector tested in vivo in the rd1 mutant mouse, cone survival and morphology
[6] = system: HIF-1α; experiment: Immunofluorescent staining for HIF-1α in cones of PDE-β−/− mice; format: in vivo; settings: PDE-β−/− mice treated for 4 weeks with insulin
Experimental: as §1, with “Eye bleeds were avoided due to the fact that cell survival in the retina was being assayed.” left out
as §2, with “modifications.” for “modifications. Antibody staining for LAMP-2: Triton was replaced with 0.01% Saponin. Antibody staining for p*-mTOR and p*-S6: PBS was replaced by TBS in every step of the procedure.”

[7] = system: photoreceptor; settings: cited from earlier work

Q: Which “cone survival after 4 weeks of treatment” value [1] does the source give for `CN(N=O)C(=O)N[C@H]1C(O)O[C@H](CO)[C@@H](O)[C@@H]1O` (mixture of isomers) [streptozotocin] here?
A: decrease in cone survival

Q: What about the “cone survival after 7 weeks of treatment” value [1] of the same molecule?
A: no significant difference in cone survival

Q: With `O=C[C@H](O)[C@@H](O)[C@H](O)[C@H](O)CO` [glucose] as the molecule, how does the “dorsal p*-mTOR in cones” value [2] read?
A: abolished in the absence of glucose; also recorded: only detected when glucose was present

Q: What does the source list for “CMV promotor-Pcx-IRES-Fbp1-IRES-Pck1: AAV 2/5 virus carrying Pcx, Fbp1 and Pck1 on one transcript under the CMV promoter with IRES elements”?
A: vision in two behavioral assays [3]: functional vision; mRNA expression of Fbp-1, Pck-1 and Pcx ([4]; PCR analysis, Gapdh loading control): expresses these genes; protein expression of Fbp-1, Pck-1 and Pcx ([4]; Western blot, transfected HEK 293 cells vs retina and HEK 293 control samples): upregulated; morphology of the cone outer segments [5]: remarkably similar to that of normal cones; cone survival ([5]; relative to controls): additional cone survival relative to controls

Q: Which “cone survival after 4 weeks of treatment” value [1] does the source give for insulin here?
A: improved cone survival; also recorded: prolonged cone survival

Q: What about the “cone survival after 7 weeks of treatment” value [1] of the same molecule?
A: did not show any significant improvement of cone survival; also recorded: no significant difference in cone survival

Q: And the “upregulation of HIF-1α in cones” value [6]?
A: did not show the upregulation of HIF-1α; also recorded: prevented the upregulation of HIF-1α

B1: proinsulin (protein, UniProt P01326 25-110, looked up)
pro-form: FVKQHLCGSHLVEALYLVCGERGFFYTPMSRREVEDPQVAQLELGGGPGAGDLQTLALEVAQQKRGIVDQCCTSICSLYQLENYCN
modifications: pro-form
Q: Which results are given for B1?
A: photoreceptor death ([7]; constitutive expression, rd10 mouse model of RP): delays photoreceptor death, both of rods and cones; hyperglycemia ([7]; mice treated with proinsulin): did not develop hyperglycemia
